Data from PubChem BioAssay (NCI).
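Following 48 hours of exposure in 96-well plates, responses at five concentrations were used to interpolate endpoints linearly. TGI denotes the concentration required for complete inhibition of growth.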

Key:
Experiment in all cases: NCI anticancer screen, dose series, 48 h
[1] = test system: 786-0 renal
[2] = test system: A498 renal
[3] = test system: A549 NSCLC
[4] = test system: ACHN renal
[5] = test system: BT-549 breast
[6] = test system: CAKI-1 renal
[7] = test system: CCRF-CEM leukemia
[8] = test system: COLO 205 colon
[9] = test system: DU-145 prostate
[10] = test system: EKVX NSCLC
[11] = test system: HCC-2998 colon
[12] = test system: HCT-116 colon
[13] = test system: HCT-15 colon
[14] = test system: HL-60(TB) leukemia
[15] = test system: HOP-62 NSCLC
[16] = test system: HOP-92 NSCLC
[17] = test system: HS 578T breast
[18] = test system: HT29 colon
[19] = test system: IGROV1 ovarian
[20] = test system: K-562 leukemia
[21] = test system: KM12 colon
[22] = test system: LOX IMVI melanoma
[23] = test system: M14 melanoma
[24] = test system: MALME-3M melanoma
[25] = test system: MCF7 breast
[26] = test system: MDA-MB-231 breast
[27] = test system: MDA-MB-435
[28] = test system: MDA-N
[29] = test system: MOLT-4 leukemia
[30] = test system: NCI-H226 lung
[31] = test system: NCI-H23 lung
[32] = test system: NCI-H460 lung
[33] = test system: NCI-H522 lung
[34] = test system: NCI/ADR-RES ovarian
[35] = test system: OVCAR-3 ovarian
[36] = test system: OVCAR-4 ovarian
[37] = test system: OVCAR-5 ovarian
[38] = test system: OVCAR-8 ovarian
[39] = test system: PC-3 prostate
[40] = test system: RPMI-8226 leukemia
[41] = test system: RXF 393 renal
[42] = test system: SF-268 CNS
[43] = test system: SF-295 CNS
[44] = test system: SF-539 CNS
[45] = test system: SK-MEL-2 melanoma
[46] = test system: SK-MEL-28 melanoma
[47] = test system: SK-MEL-5 melanoma
[48] = test system: SK-OV-3 ovarian
[49] = test system: SN12C renal
[50] = test system: SNB-19 CNS
[51] = test system: SNB-75 CNS
[52] = test system: SR leukemia
[53] = test system: SW-620 colon
[54] = test system: T-47D breast
[55] = test system: TK-10 renal
[56] = test system: U251 CNS
[57] = test system: UACC-257 melanoma
[58] = test system: UACC-62 melanoma
[59] = test system: UO-31 renal
[60] = test system: DLD-1 colon
[61] = test system: DMS 114 small cell lung
[62] = test system: DMS 273 small cell lung
[63] = test system: KM20L2 colon
[64] = test system: LXFL 529 NSCLC
[65] = test system: M19-MEL melanoma
[66] = test system: SNB-78 CNS

For `O=S(=O)(/N=C(\NO)Nc1ccc(Cl)cc1)c1ccccc1`, the TGI [1] was 16.9 µM, the TGI [2] was 27.3 µM and the TGI [3] was > 100 µM. The TGI [4] was 36.3 µM, the TGI [5] was 33.7 µM and the TGI [6] was 23 µM. For the same compound, the TGI [7] was > 100 µM, the TGI [8] was 51.5 µM and the TGI [9] was > 60.3 µM. For the same compound, the TGI [10] was 26.1 µM, the TGI [11] was 22 µM and the TGI [12] was 24.3 µM. For the same compound, the TGI [13] was > 100 µM, the TGI [14] was > 33.7 µM and the TGI [15] was > 100 µM. The TGI [16] was 22.4 µM, the TGI [17] was 34.6 µM and the TGI [18] was 41.3 µM. The TGI [19] was 62.4 µM, the TGI [20] was > 100 µM and the TGI [21] was > 100 µM. It also gave a TGI [22] of 33.6 µM, a TGI [23] of 48.6 µM and a TGI [24] of 22.5 µM. The TGI [25] was > 100 µM, the TGI [26] was > 100 µM and the TGI [27] was > 64 µM. For the same compound, the TGI [28] was 27.7 µM, the TGI [29] was > 56.6 µM and the TGI [30] was > 100 µM. The TGI [31] was > 100 µM, the TGI [32] was > 59.3 µM and the TGI [33] was 5.38 µM. The TGI [34] was 60.3 µM, the TGI [35] was 8.89 µM and the TGI [36] was > 61.2 µM. The TGI [37] was 56.6 µM, the TGI [38] was > 75 µM and the TGI [39] was 37.3 µM. The TGI [40] was 56.8 µM, the TGI [41] was 40 µM and the TGI [42] was > 70.3 µM. The TGI [43] was > 100 µM, the TGI [44] was > 30.6 µM and the TGI [45] was 29.6 µM. The TGI [46] was 33.9 µM, the TGI [47] was 21.8 µM and the TGI [48] was > 100 µM. The TGI [49] was 35.2 µM, the TGI [50] was > 89.3 µM and the TGI [51] was 19.4 µM. The TGI [52] was 9.91 µM, the TGI [53] was > 100 µM and the TGI [54] was > 83.3 µM. For the same compound, the TGI [55] was > 61.6 µM, the TGI [56] was > 100 µM and the TGI [57] was 26.6 µM. For the same compound, the TGI [58] was 36.9 µM and the TGI [59] was 27.5 µM.
In the case of `C#CCN(C(=O)C(F)(F)F)c1ccc(C(=O)c2ccc(N(CC#C)C(=O)C(F)(F)F)cc2)cc1`, the TGI [1] is reported as > 100 µM, the TGI [3] is reported as > 100 µM and the TGI [4] is reported as > 100 µM. The TGI [7] was > 100 µM, the TGI [8] was 92.5 µM and the TGI [60] was > 100 µM. For the same compound, the TGI [61] was 55.1 µM, the TGI [62] was 63.9 µM and the TGI [10] was > 100 µM. For the same compound, the TGI [11] was > 100 µM, the TGI [12] was > 100 µM and the TGI [13] was 79.9 µM. For the same compound, the TGI [14] was 40.3 µM, the TGI [15] was > 100 µM and the TGI [16] was 81 µM. For the same compound, the TGI [18] was 45.4 µM, the TGI [19] was > 100 µM and the TGI [20] was 62.9 µM. For the same compound, the TGI [21] was > 100 µM, the TGI [63] was > 100 µM and the TGI [64] was > 100 µM. The TGI [23] was > 100 µM, the TGI [65] was > 100 µM and the TGI [24] was > 100 µM. For the same compound, the TGI [29] was 64.9 µM, the TGI [31] was 71.6 µM and the TGI [32] was > 100 µM. For the same compound, the TGI [33] was 49.4 µM, the TGI [35] was 88.6 µM and the TGI [36] was > 100 µM. For the same compound, the TGI [37] was > 100 µM, the TGI [38] was > 100 µM and the TGI [40] was 51.2 µM. The TGI [41] was > 100 µM, the TGI [42] was > 100 µM and the TGI [43] was > 100 µM. For the same compound, the TGI [44] was > 100 µM, the TGI [45] was 87.9 µM and the TGI [46] was > 100 µM. For the same compound, the TGI [47] was > 100 µM, the TGI [49] was > 100 µM and the TGI [50] was > 100 µM. For the same compound, the TGI [51] was > 100 µM, the TGI [66] was > 100 µM and the TGI [53] was > 100 µM. For the same compound, the TGI [55] was > 100 µM, the TGI [56] was > 100 µM and the TGI [57] was 86.6 µM. For the same compound, the TGI [58] was 54.1 µM and the TGI [59] was > 100 µM.
